Consider 18 compounds from patent US20100093702A1, “METHYLENE AMINES OF THIENO[2,3-d]PYRIMIDINE AND THEIR USE AS ADENOSINE A2a RECEPTOR ANTAGONISTS” (priority 2008, published 2010).

Where a name gives a salt, the structure may show the parent alone.

Test [1] addresses T1, human adenosine A1 receptor (Homo sapiens, UniProt P30542).
T1 construct: expressed in transfected cells; host or cells: CHO-K1
T1 sequence (P30542 1-326): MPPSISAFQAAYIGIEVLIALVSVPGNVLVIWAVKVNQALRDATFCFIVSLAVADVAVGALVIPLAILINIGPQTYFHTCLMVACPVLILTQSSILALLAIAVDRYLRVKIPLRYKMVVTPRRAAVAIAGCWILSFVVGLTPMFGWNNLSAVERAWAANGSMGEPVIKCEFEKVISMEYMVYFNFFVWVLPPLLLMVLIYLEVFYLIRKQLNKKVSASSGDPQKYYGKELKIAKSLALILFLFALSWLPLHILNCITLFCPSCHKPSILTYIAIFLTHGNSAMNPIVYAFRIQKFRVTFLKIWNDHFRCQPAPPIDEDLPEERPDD
The experiment in a line: Adenosine A1 Receptor Functional Assay (A1GAL2). The format is cell-based. To be noted: CHO-K1 cells, cAMP inducible beta-galactosidase reporter, 4 nM r-PIA/1 uM Forskolin challenge. In a few lines: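 CHO-K1 cells expressing the receptor with a cAMP-inducible β-galactosidase reporter were preincubated with compound (11-point curves) about 15 min at room temperature, then challenged with r-PIA (4 nM)/forskolin (1 µM) for 5.5–6 h at 37 °C. Lysates were read colorimetrically at 405 nm, and IC/EC50 was obtained by curve fitting.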

Test [2] addresses T2, human adenosine A2a receptor (Homo sapiens, UniProt P29274).
T2 construct: expressed in transfected cells; host or cells: CHO-K1
Description: Adenosine A2a Receptor Functional Assay (A2AGAL2). Type of test: cell-based. To be noted: CHO-K1 cells, cAMP inducible beta-galactosidase reporter, 15 nM NECA agonist challenge. In a few lines: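 Antagonist mode in CHO-K1 cells expressing human A2a with a cAMP-inducible β-galactosidase reporter (10K cells/well, cultured 2 days). 11-point compound curves preincubated ~15 min at room temperature in Ham's F-12/0.1% BSA, then 15 nM NECA challenge, 5.5–6 h at 37 °C. Colorimetric β-gal read at 405 nm; IC/EC50 fitted.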

Test [3] addresses T3, human A2a adenosine receptor (Homo sapiens, UniProt P29274).
T3 construct: purchased PerkinElmer RB-HA2a; host or cells: HEK293
The experiment in a line: Ligand Binding Assay for Adenosine A2a Receptor (A2A-B). Particulars: HEK293 plasma membrane, radioligand [3H]CGS21680. The procedure:
Ligand Binding Assay for Adenosine A2a Receptor
Ligand binding assay of adenosine A2a receptor was performed using plasma membrane of HEK293 cells containing human A2a adenosine receptor (PerkinElmer, RB-HA2a) and radioligand [^3H]CGS21680 (PerkinElmer, NET 1021). Assay was set up in 96-well polypropylene plate in total volume of 200 μL by sequentially adding 20 μL 1:20 diluted membrane, 130 μL assay buffer (50 mM Tris.HCl, pH7.4 10 mM MgCl2, 1 mM EDTA) containing [^3H] CGS21680, 50 μL diluted compound (4×) or vehicle control in assay buffer. Nonspecific binding was determined by […] NECA. Reaction was carried out at room temperature for 2 hours before filtering through 96-well GF/C filter plate pre-soaked in 50 mM Tris.HCl, pH7.4 containing 0.3% polyethylenimine. Plates were then washed 5 times with cold 50 mM Tris.HCl, pH7.4, dried and sealed at the bottom. Microscintillation fluid 30 μL was added to each well and the top sealed. Plates were counted on Packard Topcount for [^3H]. Data was analyzed in Microsoft Excel and GraphPad Prism programs. (Varani, K.; Gessi, S.; Dalpiaz, A.; Borea, P. A. British Journal of Pharmacology, 1996, 117, 1693)

T2 sequence (P29274 whole entry): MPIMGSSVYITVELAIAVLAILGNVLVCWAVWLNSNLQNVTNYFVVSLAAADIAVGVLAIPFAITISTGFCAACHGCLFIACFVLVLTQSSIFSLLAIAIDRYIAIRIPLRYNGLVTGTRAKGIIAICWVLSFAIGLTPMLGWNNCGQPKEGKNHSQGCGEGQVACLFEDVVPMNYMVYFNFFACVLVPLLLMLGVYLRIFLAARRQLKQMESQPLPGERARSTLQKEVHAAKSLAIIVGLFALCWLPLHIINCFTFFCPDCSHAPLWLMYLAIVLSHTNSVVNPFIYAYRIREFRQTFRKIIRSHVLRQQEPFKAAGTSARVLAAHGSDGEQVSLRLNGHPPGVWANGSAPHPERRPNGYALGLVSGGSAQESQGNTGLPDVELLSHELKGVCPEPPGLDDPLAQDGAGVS
T3 sequence (P29274 whole entry): as above

What is called Ki is a measure of affinity in units of concentration, obtained from inhibition or displacement. A high value points to weaker binding. As for `Nc1nc(-c2ccco2)nc2sc(CN3CCC(F)CC3)cc12` [Example 92, 6-(4-Fluoro-piperidin-1-ylmethyl)-2-furan-2-yl-thieno[2,3-d]pyrimidin-4-ylamine Hydrochloride], the figures for the Ki in test [1], in test [2] and in test [3] were 741 nM, 18.9 nM and 12 nM, respectively.
The like results for `COc1cccc(-c2nc(N)c3cc(CN4CCSCC4)sc3n2)c1` [Example 85, 2-(3-Methoxy-phenyl)-6-thiomorpholin-4-ylmethyl-thieno[2,3-d]pyrimidin-4-ylamine] were, in that order, 2960 nM, 169 nM and 659 nM.
With `CN(C)Cc1cc2c(N)nc(-c3ccco3)nc2s1` [Example 46, 6-Dimethylaminomethyl-2-furan-2-yl-thieno[2,3-d]pyrimidin-4-ylamine], the Ki in test [1] was determined as 3550 nM; in test [2], 143 nM; in test [3] it was 89 nM.
As for `N#Cc1ccc(-c2nc(N)c3cc(CN4CC=CC4)sc3n2)cc1` [Example 88, 4-[4-Amino-6-(2,5-dihydro-pyrrol-1-ylmethyl)-thieno[2,3-d]pyrimidin-2-yl]-benzonitrile], the values for the Ki in test [1], in test [2] and in test [3] were 2350 nM, 78.9 nM and 76 nM, respectively.
For the compound `Nc1nc(-c2ccnc(Cl)c2)nc2sc(CN3CCOCC3)cc12` [Example 105, 2-(2-Chloro-pyridin-4-yl)-6-morpholin-4-ylmethyl-thieno[2,3-d]pyrimidin-4-ylamine], the Ki in test [1] was found to be 876 nM; in test [2], 123 nM; in test [3], 934 nM.
The like results for `Nc1nc(-c2ccc(Cl)o2)nc2sc(CN3CCCCCC3)cc12` [Example 93, 6-Azepan-1-ylmethyl-2-(5-chloro-furan-2-yl)-thieno[2,3-d]pyrimidin-4-ylamine] were, in that order, 1420 nM, 33.2 nM and 1.8 nM.
As for `COc1cccc(-c2nc(N)c3cc(CN4CCCC(F)(F)C4)sc3n2)c1` [Example 86, 6-(3,3-Difluoro-piperidin-1-ylmethyl)-2-(3-methoxy-phenyl)-thieno[2,3-d]pyrimidin-4-ylamine], the Ki was 1810 nM in test [1], 97.5 nM in test [2] and 242 nM in test [3].
The like results for `Nc1nc(-c2ccc(C(F)F)o2)nc2sc(CN3CCOCC3)cc12` [Example 107, 2-(5-Difluoromethyl-furan-2-yl)-6-morpholin-4-ylmethyl-thieno[2,3-d]pyrimidin-4-ylamine] were, in that order, 2700 nM, 30.5 nM and 66.1 nM.
In the case of `Nc1nc(-c2ccco2)nc2sc(CNC3CCCCC3)cc12` [Example 32, 6-Cyclohexylaminomethyl-2-furan-2-yl-thieno[2,3-d]pyrimidin-4-ylamine], the values for the Ki in test [1], in test [2] and in test [3] were 2480 nM, 168 nM and 142 nM, respectively.
Take `Nc1nc(-c2ccco2)nc2sc(CN3CC[C@@H](F)C3)cc12` [Example 54, 6-(3-Fluoro-pyrrolidin-1-ylmethyl)-2-furan-2-yl-thieno[2,3-d]pyrimidin-4-ylamine]: the figures for the Ki in test [1], in test [2] and in test [3] were 878 nM, 11.5 nM and 8.2 nM, respectively.
`Cc1ccc(-c2nc(N)c3cc(CN4CCOCC4)sc3n2)o1` [Example 38, 2-(5-Methyl-furan-2-yl)-6-morpholin-4-ylmethyl-thieno[2,3-d]pyrimidin-4-ylamine]: the Ki was 1050 nM in test [1], 31.9 nM in test [2] and 32.7 nM in test [3].
With `Nc1nc(-c2ccco2)nc2sc(CN3CC[C@H](F)C3)cc12` [Example 53, 6-(3-Fluoro-pyrrolidin-1-ylmethyl)-2-furan-2-yl-thieno[2,3-d]pyrimidin-4-ylamine], the Ki in test [1] was determined as 656 nM; in test [2], 12.3 nM; in test [3], 14 nM.
`Nc1nc(-c2ccco2)nc2sc(CN3CCC(F)C3)cc12` (stereo not drawn) [Example 51, 6-(3-Fluoro-pyrrolidin-1-ylmethyl)-2-furan-2-yl-thieno[2,3-d]pyrimidin-4-ylamine]: the figures for the Ki in test [1], in test [2] and in test [3] were 1340 nM, 9.8 nM and 5.9 nM, respectively.
The like results for `CCN(CC)Cc1cc2c(N)nc(-c3ccco3)nc2s1` [Example 31, 6-Diethylaminomethyl-2-furan-2-yl-thieno[2,3-d]pyrimidin-4-ylamine] were, in that order, 2130 nM, 55.2 nM and 137 nM.
As to `Nc1nc(-c2ccco2)nc2sc(CN3CCC(=O)CC3)cc12` [Example 45, 1-(4-Amino-2-furan-2-yl-thieno[2,3-d]pyrimidin-6-ylmethyl)-piperidin-4-one], the Ki is 2720 nM in test [1], 229 nM in test [2] and 190 nM in test [3].
Take `N#Cc1cccc(-c2nc(N)c3cc(CN4CCOCC4)sc3n2)c1` [Example 74, 3-(4-Amino-6-morpholin-4-ylmethyl-thieno[2,3-d]pyrimidin-2-yl)-benzonitrile]: the Ki in test [1] was determined as 1010 nM; in test [2] it was 35.9 nM; in test [3] it was 93.2 nM.
On to `Nc1nc(-c2ccco2)nc2sc(CNC3CC3)cc12` [Example 29, 6-Cyclopropylaminomethyl-2-furan-2-yl-thieno[2,3-d]pyrimidin-4-ylamine], for which the results for the Ki in test [1], in test [2] and in test [3] were 1890 nM, 36.2 nM and 93.3 nM, respectively.
Turning to `N#Cc1cccc(-c2nc(N)c3cc(CN4CCC(F)CC4)sc3n2)c1` [Example 82, 3-[4-Amino-6-(4-fluoro-piperidin-1-ylmethyl)-thieno[2,3-d]pyrimidin-2-yl]-benzonitrile], the Ki in test [1] is 2950 nM; in test [2], 53.8 nM; in test [3], 444 nM.
